Here are results for 13 compounds from US20080096861A1, “Chemical Compounds” (SMITHKLINE BEECHAM CORPORATION, priority 2004, published 2008).

The assay has as its system HIV-1 IIIB. Put plainly: HOS HIV-1 infectivity assay. It is filed as cell-based. The settings on record: Human immunodeficiency virus 1, IIIB; as determined by the infectivity assay; strain not stated in Table 2; read-out: Activity Level. Here is the method:
Compounds were profiled against two HIV-1 viruses, the M-tropic (CCR5 utilizing) Ba-L strain and the T-tropic (CXCR4 utilizing) IIIB strain. Both viruses were propagated in human peripheral blood lymphocytes. Compounds were tested for there ability to block infection of the HOS cell line (expressing hCXCR4/hCCR5/hCD4/pHIV-LTR-luciferase) by either HIV-1 Ba-L or HIV-1 IIIB. Compound cytotoxicity was also examined in the absence of virus addition.
HOS cells (expressing hCXCR4/hCCR5/hCD4/pHIV-LTR-luciferase) were harvested and diluted in Dulbeccos modified Eagles media supplemented with 2% FCS and non-essential amino acid to a concentration of 60,000 cells/ml. The cells were plated into 96-well plates (100 ul per well) and the plates were placed in a tissue culture incubator (37° C.; 5% CO2/95% air) for a period of 24 h.
Subsequently, 50 ul of the desired drug solution (4 times the final concentration) was added to each well and the plates were returned to the tissue culture incubator (37° C.; 5% CO2/95% air) for 1 h. Following this incubation 50 ul of diluted virus was added to each well (approximately 2 million RLU per well of virus). The plates were returned to the tissue culture incubator (37° C.; 5% CO2/95% air) and were incubated for a further 96 h.
Following this incubation the endpoint for the virally infected cultures was quantified following addition of Steady-Glo Luciferase assay system reagent (Promega, Madison, Wis.). Cell viability or non-infected cultures was measured using a CellTiter-Glo luminescent cell viability assay system (Promega, Madison, Wis.). All luminescent readouts are performed on a Topcount luminescence detector (Packard, Meridien, Conn.).

Molecules are shown by their SMILES.

For `CC(C)CCN1CCC[C@@H](Cn2c(CN(C)[C@H]3CCCc4cccnc43)nc3ccccc32)C1` [Example 80, (8S)—N-Methyl-N-[(1-{[(3R)-1-(3-methylbutyl)-3-piperidinyl]methyl}-1H-benzimidazol-2-yl)methyl]-5,6,7,8-tetrahydro-8-quinolinamine], the IC50 was less than 100 nM.
The result for `CN(Cc1nc2ccccc2n1CC(=O)NCc1cccnc1)C1CCCc2cccnc21` (stereo not shown) [Example 29, 2-(2-{[Methyl(5,6,7,8-tetrahydro-8-quinolinyl)amino]methyl}-1H-benzimidazol-1-yl)-N-(3-pyridinylmethyl)acetamide] reads less than 100 nM; that for `CN(Cc1nc2ccccc2n1CCCN)[C@H]1CCCc2cccnc21` [Example 110, (8S)—N-{[1-(3-Aminopropyl)-1H-benzimidazol-2-yl]methyl}-N-methyl-5,6,7,8-tetrahydro-8-quinolinamine], less than 100 nM.
The result for `CC(C)N1CCC[C@H](Cn2c(CN(C)[C@H]3CCCc4cccnc43)nc3ccccc32)C1` [Example 85, (8S)—N-Methyl-N-[(1-{[(3S)-1-(1-methylethyl)-3-piperidinyl]methyl}-1H-benzimidazol-2-yl)methyl]-5,6,7,8-tetrahydro-8-quinolinamine] reads less than 100 nM; that for `CN(Cc1nc2ccccc2n1C[C@H]1CCCNC1)[C@H]1CCCc2cccnc21` [Example 39h, (8S)—N-Methyl-N-({1-[(3S)-3-piperidinylmethyl]-1H-benzimidazol-2-yl}methyl)-5,6,7,8-tetrahydro-8-quinolinamine], less than 100 nM; that for `CN(Cc1nc2ccccc2n1C[C@H]1CCCN(Cc2ccncc2)C1)[C@H]1CCCc2cccnc21` [Example 42, (8S)—N-Methyl-N-[(1-{[(3S)-1-(4-pyridinylmethyl)-3-piperidinyl]methyl}-1H-benzimidazol-2-yl)methyl]-5,6,7,8-tetrahydro-8-quinolinamine], less than 100 nM.
Turning to `CN(Cc1nc2ccccc2n1C/C=C/CN)C1CCCc2cccnc21` (stereo not shown) [Example 58, N-({1-[(2E)-4-Amino-2-buten-1-yl]-1H-benzimidazol-2-yl}methyl)-N-methyl-5,6,7,8-tetrahydro-8-quinolinamine], the IC50 lay in the range of 100 to 500 nM.
Then `CN(Cc1nc2ccccc2n1C[C@H]1CCCN(C(=N)N)C1)[C@@H]1CCCc2cccnc21` [Example 88, (3R)-3-{[2-({Methyl[(8R)-5,6,7,8-tetrahydro-8-quinolinyl]amino}methyl)-1H-benzimidazol-1-yl]methyl}-1-piperidinecarboximidamide], with 100 to 500 nM.
The result for `CN1CCC[C@H](Cn2c(CN(CCCO)[C@H]3CCCc4cccnc43)nc3ccccc32)C1` [Example 96, 3-{[(1-{[(3S)-1-Methyl-3-piperidinyl]methyl}-1H-benzimidazol-2-yl)methyl][(8S)-5,6,7,8-tetrahydro-8-quinolinyl]amino}-1-propanol] reads less than 100 nM.
The result for `CC(C)CCN1CCC[C@H](Cn2c(CN(C)[C@H]3CCCc4cccnc43)nc3ccccc32)C1` [Example 84, (8S)—N-Methyl-N-[(1-{[(3S)-1-(3-methylbutyl)-3-piperidinyl]methyl}-1H-benzimidazol-2-yl)methyl]-5,6,7,8-tetrahydro-8-quinolinamine] reads less than 100 nM.
For `CN(Cc1nc2ccccc2n1CCC1CCCCN1)C1CCCc2cccnc21` (stereo not shown) [Example 23d, N-Methyl-N-({1-[2-(2-piperidinyl)ethyl]-1H-benzimidazol-2-yl}methyl)-5,6,7,8-tetrahydro-8-quinolinamine], the IC50 is less than 100 nM.
The result for `CN(Cc1nc2ccccc2n1[C@H]1CC[C@H](N(C)C)CC1)C1CCCc2cccnc21` (stereo partly drawn) [Example 35, N-({1-[trans-4-(Dimethylamino)cyclohexyl]-1H-benzimidazol-2-yl}methyl)-N-methyl-5,6,7,8-tetrahydro-8-quinolinamine] reads 100 to 500 nM.
Then `CN(Cc1nc2ccccc2n1CCn1ccnc1)C1CCCc2cccnc21` (stereo not shown) [Example 70, N-({1-[2-(1H-Imidazol-1-yl)ethyl]-1H-benzimidazol-2-yl}methyl)-N-methyl-5,6,7,8-tetrahydro-8-quinolinamine], with 100 to 500 nM.
